Results: patent US20100137305A1, “AMINOPYRIMIDINES USEFUL AS KINASE INHIBITORS” (VERTEX PHARMACEUTICALS INCORPORATED, priority 2008, published 2010)
Where two headings read alike, the source gives them in different places.

Tests used:
[1] = target: T1, Aurora-2 (Aurora A) (Homo sapiens, UniProt O14965); experiment: Aurora-2 (Aurora A) Inhibition Assay, coupled enzyme assay; format: biochemical; conditions: 400 μM ATP, 30° C.; read-out: Aurora A kinase activity Ki
T1 sequence (O14965 1-403): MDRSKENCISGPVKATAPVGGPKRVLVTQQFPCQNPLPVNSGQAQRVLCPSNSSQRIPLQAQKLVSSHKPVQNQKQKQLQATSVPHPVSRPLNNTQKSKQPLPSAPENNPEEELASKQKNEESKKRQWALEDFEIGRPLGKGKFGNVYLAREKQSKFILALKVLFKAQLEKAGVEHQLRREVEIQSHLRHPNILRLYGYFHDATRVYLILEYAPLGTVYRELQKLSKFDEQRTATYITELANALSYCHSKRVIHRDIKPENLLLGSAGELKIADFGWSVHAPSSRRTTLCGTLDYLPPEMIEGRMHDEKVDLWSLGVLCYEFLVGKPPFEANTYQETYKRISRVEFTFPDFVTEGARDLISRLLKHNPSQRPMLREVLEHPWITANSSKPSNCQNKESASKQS
Protocol: Compounds were screened for their ability to inhibit Aurora-2 using a standard coupled enzyme assay (Fox et al., Protein Sci., (1998) 7, 2249). Assays were carried out in a mixture of 100 mM Hepes (pH7.5), 10 mM MgCl2, 1 mM DTT, 25 mM NaCl, 2.5 mM phosphoenolpyruvate, 300 μM NADH, 30 μg/ml pyruvate kinase and 10 μg/ml lactate dehydrogenase. Final substrate concentrations in the assay were 400 μM ATP (Sigma Chemicals) and 570 μM peptide (Kemptide, American Peptide, Sunnyvale, Calif.). Assays were carried out at 30° C. and in the presence of 40 nM Aurora-2.
An assay stock buffer solution was prepared containing all of the reagents listed above, with the exception of Aurora-2 and the test compound of interest. 55 μl of the stock solution was placed in a 96 well plate followed by addition of 2 μl of DMSO stock containing serial dilutions of the test compound (typically starting from a final concentration of 7.5 μM). The plate was preincubated for 10 minutes at 30° C. and the reaction initiated by addition of 10 μl of Aurora-2. Initial reaction rates were determined with a Molecular Devices SpectraMax Plus plate reader over a 10 minute time course. IC50 and Ki data were calculated from non-linear regression analysis using the Prism software package (GraphPad Prism version 3.0cx for Macintosh, GraphPad Software, San Diego Calif., USA).

[2] = target: Aurora-1 (Aurora B) (Homo sapiens, UniProt Q96GD4); experiment: Aurora-1 (Aurora B) Inhibition Assay (radiometric); format: biochemical; conditions: 800 μM ATP; read-out: Aurora B kinase activity Ki
Sequence of Aurora-1 (Aurora B) (Q96GD4 whole entry): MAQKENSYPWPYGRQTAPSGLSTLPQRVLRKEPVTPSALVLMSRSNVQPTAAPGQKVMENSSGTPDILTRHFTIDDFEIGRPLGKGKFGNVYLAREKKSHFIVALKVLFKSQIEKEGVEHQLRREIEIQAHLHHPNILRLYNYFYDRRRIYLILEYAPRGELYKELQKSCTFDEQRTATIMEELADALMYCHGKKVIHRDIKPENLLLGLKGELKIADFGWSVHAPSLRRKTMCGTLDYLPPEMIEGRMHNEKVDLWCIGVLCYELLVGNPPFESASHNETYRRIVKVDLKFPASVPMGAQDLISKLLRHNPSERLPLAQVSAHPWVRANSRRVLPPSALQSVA
Protocol: An assay buffer solution was prepared which consisted of 25 mM HEPES (pH 7.5), 10 mM MgCl2, 0.1% BSA and 10% glycerol. A 22 nM Aurora-B solution, also containing 1.7 mM DTT and 1.5 mM Kemptide (LRRASLG), was prepared in assay buffer. To 22 μL of the Aurora-B solution, in a 96-well plate, was added 2 μl of a compound stock solution in DMSO and the mixture allowed to equilibrate for 10 minutes at 25° C. The enzyme reaction was initiated by the addition of 16 μl stock [γ-^33P]-ATP Pi-ATP solution (˜20 nCi/μL) prepared in assay buffer, to a final assay concentration of 800 μM. The reaction was stopped after 3 hours by the addition of 16 μL 500 mM phosphoric acid and the levels of ^33P incorporation into the peptide substrate were determined by the following method.
A phosphocellulose 96-well plate (Millipore, Cat no. MAPHNOB50) was pre-treated with 100 μL of a 100 mM phosphoric acid prior to the addition of the enzyme reaction mixture (40 μL). The solution was left to soak on to the phosphocellulose membrane for 30 minutes and the plate subsequently washed four times with 200 μL of a 100 mM phosphoric acid. To each well of the dry plate was added 30 μL of Optiphase ‘SuperMix’ liquid scintillation cocktail (Perkin Elmer) prior to scintillation counting (1450 Microbeta Liquid Scintillation Counter, Wallac). Levels of non-enzyme catalyzed background radioactivity were determined by adding 16 μL of the 500 mM phosphoric acid to control wells, containing all assay components (which acts to denature the enzyme), prior to the addition of the [γ-^33P]-ATP solution. Levels of enzyme catalyzed ^33P incorporation were calculated by subtracting mean background counts from those measured at each inhibitor concentration. For each Ki determination 8 data points, typically covering the concentration range 0-10 μM compound, were obtained in duplicate (DMSO stocks were prepared from an initial compound stock of 10 mM with subsequent 1:2.5 serial dilutions). Ki values were calculated from initial rate data by non-linear regression using the Prism software package (Prism 3.0, Graphpad Software, San Diego, Calif.).

[3] = system: Colo205 cells; experiment: Analysis of Cell Proliferation, 3H thymidine incorporation; format: cell-based; conditions: Homo sapiens
Protocol: Compounds were screened for their ability to inhibit cell proliferation using Colo205 cells obtained from ECACC and using the assay shown below.
Colo205 cells were seeded in 96 well plates and serially diluted compound was added to the wells in duplicate. Control groups included untreated cells, the compound diluent (0.1% DMSO alone) and culture medium without cells. The cells were then incubated for 72 or 96 hrs at 37C in an atmosphere of 5% CO2/95% humidity.
To measure proliferation, 3 h prior to the end of the experiment 0.5 μCi of 3H thymidine was added to each well. Cells were then harvested and the incorporated radioactivity counted on a Wallac microplate beta-counter. Dose response curves were calculated using either Prism 3.0 (GraphPad) or SoftMax Pro 4.3.1 LS (Molecular Devices) software.

[4] = COLO 205, 96 h, 96 hours, read-out: IC50 cell proliferation after 96 hours
[5] = COLO 205, 72 h, 72 hours, read-out: IC50 cell proliferation after 72 hours

Row | Compound | Ki [1] | Ki [2] | IC50 [3, 4] | IC50 [3, 5]
1 | CCC(=O)Nc1ccc(Sc2nc(Nc3cc(C)n[nH]3)cc(N3CC[C@@H](NC(C)C)C3)n2)cc1 [Compound I-1] | 10 to 50 nM |  |  | 
2 | CCC(=O)Nc1ccc(Sc2nc(Nc3cc(C)n[nH]3)cc(N3CCC(O)(CC(C)(C)C)C3)n2)cc1 (centres unmarked) [Compound I-2] | ≤ 10 nM |  |  | 
3 | CCC(=O)Nc1ccc(Sc2nc(Nc3cc(C)n[nH]3)cc(N3CCC(N4CCCC4(C)C)C3)n2)cc1 (centres unmarked) [Compound I-3] | ≤ 10 nM |  |  | 
4 | Cc1cnc(Nc2cc(N3CC[C@H](OC(C)C)C3)nc(Sc3ccc(NC(=O)C4CC4)cc3)n2)s1 [Compound I-5] | ≤ 10 nM | 10 to 50 nM |  | 
5 | Cc1cnc(Nc2cc(N3CC[C@@H](O)C3)nc(Sc3ccc(NC(=O)C4CC4)cc3)n2)s1 [Compound I-6] | ≤ 10 nM | 10 to 50 nM |  | 
6 | Cc1cnc(Nc2cc(N3CCC[C@H](N(C)C)C3)nc(Sc3ccc(NC(=O)C4CC4)cc3)n2)s1 [Compound I-8] | 10 to 50 nM |  | 50 to 200 nM | 
7 | CCC(=O)Nc1ccc(Sc2nc(Nc3cc(C)n[nH]3)cc(N3CC[C@@H](NC)C3)n2)cc1 [Compound I-9] | ≤ 10 nM | 10 to 50 nM | 50 to 200 nM | 
8 | CCC(=O)Nc1ccc(Sc2nc(Nc3cc(C)n[nH]3)cc(N3CCC(O)(C(C)(C)C)C3)n2)cc1 (centres unmarked) [Compound I-10] | ≤ 10 nM |  | 50 to 200 nM | 
9 | CCC(=O)Nc1ccc(Sc2nc(Nc3cc(C)n[nH]3)cc(N3CCC(C)(O)C3)n2)cc1 (centres unmarked) [Compound I-11] | ≤ 10 nM | 10 to 50 nM | 50 to 200 nM | 
10 | Cc1cnc(Nc2cc(N3CCC[C@@H](N(C)C)C3)nc(Sc3ccc(NC(=O)C4CC4)cc3)n2)s1 [Compound I-13] | 10 to 50 nM |  | 50 to 200 nM | 
11 | CO[C@H]1CCN(c2cc(Nc3ncc(C)s3)nc(Sc3ccc(NC(=O)C4CC4)cc3)n2)C1 [Compound I-14] | ≤ 10 nM | 10 to 50 nM | 50 to 200 nM | 
12 | CCC(=O)Nc1ccc(Sc2nc(Nc3cc(C)[nH]n3)cc(N3CCC4(CC3)OCCO4)n2)cc1 [Compound I-15] | ≤ 10 nM | 10 to 50 nM | 50 to 200 nM | 
13 | CCC(=O)Nc1ccc(Sc2nc(Nc3cc(C)n[nH]3)cc(N3CCC(C#N)CC3)n2)cc1 [Compound I-16] | ≤ 10 nM | 10 to 50 nM | 50 to 200 nM | 
14 | CCC(=O)Nc1ccc(Sc2nc(Nc3cc(C)[nH]n3)cc(N3CCC(=O)CC3)n2)cc1 [Compound I-17] | ≤ 10 nM | 10 to 50 nM | 50 to 200 nM | 
15 | CCC(=O)Nc1ccc(Sc2nc(Nc3cc(C)n[nH]3)cc(N3CC4CCCNC4C3)n2)cc1 (centres unmarked) [Compound I-19] | ≤ 10 nM |  | 50 to 200 nM | 
16 | CCC(=O)Nc1ccc(Sc2nc(Nc3cc(C4CC4)n[nH]3)cc(N3CCC(F)C3)n2)cc1 (centres unmarked) [Compound I-20] | ≤ 10 nM | ≤ 10 nM | 50 to 200 nM | 

Row | Compound | Ki [1] | Ki [2] | IC50 [3, 4] | IC50 [3, 5]
17 | CCC(=O)Nc1ccc(Sc2nc(Nc3cc(C)n[nH]3)cc(N3CCC(C)(O)CC3)n2)cc1 [Compound I-21] | ≤ 10 nM | 10 to 50 nM | 50 to 200 nM | 
18 | CCC(=O)Nc1ccc(Sc2nc(Nc3cc(C)n[nH]3)cc(N3CC[C@H](NC)C3)n2)cc1 [Compound I-22] | ≤ 10 nM | 10 to 50 nM | 50 to 200 nM | 
19 | CCC(=O)Nc1ccc(Sc2nc(Nc3cc(C)n[nH]3)cc(N3CCC(C(C)(C)C)CC3)n2)cc1 [Compound I-23] | ≤ 10 nM |  | 50 to 200 nM | 
20 | CN[C@H]1CCCN(c2cc(Nc3ncc(C)s3)nc(Sc3ccc(NC(=O)C4CC4)cc3)n2)C1 [Compound I-25] | ≤ 10 nM |  | 50 to 200 nM | 
21 | Cc1cc(Nc2cc(N3CCCC(F)(F)C3)nc(Sc3ccc(NC(=O)CC(F)(F)F)cc3)n2)[nH]n1 [Compound I-26] | ≤ 10 nM | 10 to 50 nM | 50 to 200 nM | 25 to 125 nM
22 | CCC(=O)Nc1ccc(Sc2nc(Nc3cc(C)[nH]n3)cc(N3CC[C@H](NC(C)C)C3)n2)cc1 [Compound I-28] | 10 to 50 nM |  | 50 to 200 nM | 
23 | Cc1cnc(Nc2cc(N3CC[C@H](N(C)C)C3)nc(Sc3ccc(NC(=O)C4CC4)cc3)n2)s1 [Compound I-30] | ≤ 10 nM |  | 50 to 200 nM | 
24 | Cc1cc(Nc2cc(N3CCC4(CC3)CCN(C(C)C)C4)nc(Sc3ccc(NC(=O)C4CC4)cc3)n2)[nH]n1 [Compound I-31] | ≤ 10 nM | 10 to 50 nM | 50 to 200 nM | 
25 | CCC(=O)Nc1ccc(Sc2nc(Nc3cc(C)n[nH]3)cc(N3CCC(C)(N4CCCC4)CC3)n2)cc1 [Compound I-34] | ≤ 10 nM |  | 50 to 200 nM | 
26 | CN[C@@H]1CCN(c2cc(Nc3ncc(C)s3)nc(Sc3ccc(NC(=O)C4CC4)cc3)n2)C1 [Compound I-36] | ≤ 10 nM |  | ≤ 50 nM | 
27 | Cc1cnc(Nc2cc(N3CC[C@@H](N4CCCC4)C3)nc(Sc3ccc(NC(=O)C4CC4)cc3)n2)s1 [Compound I-37] | ≤ 10 nM |  | ≤ 50 nM | 
28 | CCC(=O)Nc1ccc(Sc2nc(Nc3cc(C)n[nH]3)cc(N3CCC(N4CCCC4)C3)n2)cc1 (centres unmarked) [Compound I-48] | ≤ 10 nM |  | ≤ 50 nM | 
29 | CCC(=O)Nc1ccc(Sc2nc(Nc3cc(C)n[nH]3)cc(N3CC[C@H](N(C)CC)C3)n2)cc1 [Compound I-50] | ≤ 10 nM |  | ≤ 50 nM | 
30 | Cc1cc(Nc2cc(N3CCC(N4CCCC4)CC3)nc(Sc3ccc(NC(=O)CC4CC4)cc3)n2)n[nH]1 [Compound I-83] | ≤ 10 nM |  |  | 25 to 125 nM
31 | CCC(=O)Nc1ccc(Sc2nc(Nc3cc(C)n[nH]3)cc(N3CCC(OC(C)(C)C)CC3)n2)cc1 [Compound I-85] | ≤ 10 nM | 10 to 50 nM |  | 
